Measurements reported in paper PMC6356855, “Two New Succinimide Derivatives Cladosporitins A and B from the Mangrove-derived Fungus Cladosporium sp. HNWSW-1” (Marine Drugs, 2018).

Assays:
[1] = tested on: SGC-7901 cell line; assay: MTT cytotoxicity assay, SGC-7901; assay type: cell-based; settings: MTT method, mean ± SD, n = 3
Procedure: (§1) The MTT method optimized by Mosmann et al. was performed in vitro to test the cytotoxic activity of compounds 1–6. Adriamycin was used as a positive control and the medium without the test compound was used as a negative control in the bioassay.

[2] = molecular target: α-glycosidase; assay: α-glycosidase inhibitory activity assay; assay type: biochemical; settings: α-glycosidase inhibition in vitro; mean ± SD, n = 3
Procedure: The method optimized by Jong et al. was performed in vitro to test the α-glucosidase inhibitory activity of compounds 1–5. Acarbose was used as positive control.

[3] = tested on: BEL-7042 cell line; assay: MTT cytotoxicity assay, BEL-7042; assay type: cell-based; settings: MTT method, mean ± SD, n = 3
Procedure: as §1

[4] = tested on: Hela cell line; assay: MTT cytotoxicity assay, Hela; assay type: cell-based; settings: MTT method, mean ± SD, n = 3
Procedure: as §1

[5] = tested on: K562 cell line; assay: MTT cytotoxicity assay, K562; assay type: cell-based; settings: MTT method, mean ± SD, n = 3
Procedure: as §1

[6] = Homo sapiens, SGC-7901, cytotoxicity
[7] = Homo sapiens, K562, cytotoxicity

Molecule	IC50 ([1]; cytotoxicity) [µM]	IC50 [2] [µM]	IC50 [3] [µM]	IC50 [4] [µM]	IC50 ([5]; cytotoxicity) [µM]	IC50 [1, 6] [µM]	IC50 ([4]; Homo sapiens) [µM]	IC50 [5, 7] [µM]
1,3,6-trihydroxy-7-(1-hydroxyethyl) anthracene-9,10-dione [Compound 5]	> 50	49.3 ± 10.6	> 50	> 50	> 50			
C[C@H]1O[C@H](O[C@H]2[C@H](O)[C@@H](O)[C@@H](O[C@H]3[C@H](O)[C@@H](O)C(O)O[C@@H]3CO)O[C@@H]2CO)[C@H](O)[C@@H](O)[C@@H]1N[C@H]1C=C(CO)[C@@H](O)[C@H](O)[C@H]1O (stereo partly drawn) [Acarbose, reference compound]		275.7 ± 2.7						
COc1cccc2c1C(=O)c1c(O)c3c(c(O)c1C2=O)C[C@@](O)(C(=O)CO)C[C@@H]3O[C@H]1C[C@H](N)[C@H](O)[C@H](C)O1 [Adriamycin, reference compound]			11.9 ± 0.37			6.66 ± 0.2	11.5 ± 0.18	14.2 ± 0.66
CCC(C)C=C(C)C1C(C)=CC2(C)CC(C)CCC2C1C(=O)C1C(=O)NC(=O)C1Cc1ccc(O)cc1 (stereo not drawn) [Compound 1, cladosporitin A]		> 500	> 50			> 50	> 50	> 50
CCC(C)C=C(C)C1C(C)=CC2(C)CC(C)CCC2C1C(=O)C1C(=O)NC(=O)C1Cc1ccc(O)cc1 (stereo not drawn) [Compound 2, cladosporitin B]	41.7 ± 0.71	> 500	29.4 ± 0.35	> 50	25.6 ± 0.47			
C/C=C/c1cc(=O)c2c(C)cc(O)cc2o1 [Compound 3, clapone]		> 500	> 50			> 50	> 50	> 50
CCC(C)/C=C(\C)[C@H]1C(C)=C[C@@]2(C)C[C@@H](C)CC[C@@H]2[C@H]1C(=O)C1=C/C(=C/c2ccc(O)cc2)NC1=O (stereo partly drawn) [Compound 4, talaroconvolutin A]		78.2 ± 2.1	26.7 ± 1.1			> 50	14.9 ± 0.21	> 50
